Earlier results as cited in US7605257B2, “Processes for preparing water-soluble polyethylene glycol conjugates of macrolide immunosuppressants” (Wyeth, priority 2006, dated 2009).
pIC50: −log10 of the molar value.

System: various solid tumors
Settings: typical IC50, inhibitor of tumor growth; read-out: IC50 against various solid tumors

## CO[C@H]1C[C@@H]2CC[C@@H](C)[C@@](O)(O2)C(=O)C(=O)N2CCCC[C@H]2C(=O)O[C@H]([C@H](C)C[C@@H]2CC[C@@H](O)[C@H](OC)C2)CC(=O)[C@H](C)/C=C(\C)[C@@H](O)[C@@H](OC)C(=O)[C@H](C)C[C@H](C)/C=C/C=C/C=C/1C [Rapamycin, rapamycin]
  pIC50: > 7.30
